The results in this text go back to US5565484A, “Benzenesulphonylindole derivatives for the preparation of medicines” (Sanofi, priority 1993, dated 1996).

For series [1], the system named is cardiovascular system. In words: Activity on the cardiovascular system.
The subject of series [2] is calcium translocation. Description: Inhibition of calcium translocation in vitro. The format is biochemical.
Series [3] has as its system smooth muscle cells. In words: Inhibition of the proliferation of smooth muscle cells (general statements). The note with it: qualitative statement. Format: cell-based.
A short description of series [4]: Solubility tests in water of SR 33805 salts. Format: physicochemical. Conditions: for solubility: (2) water of pH = 3.6. The protocol:
(1) solubility in water at 25° C. after stirring for 72 hours
(2) solubility in water of pH = 3.6
(3) solubility after addition of the product to be tested to water at
70° C., stirring and continuation of stirring for 72 h at […]

In series [5] the test system is human aortic smooth muscle cells. Description: in vitro inhibition of proliferation of human aortic smooth muscle cells. The format is cell-based. Conditions: read-out: IC50 (inhibition of cell proliferation). The protocol:
"in vitro" tests were carried out using human aortic smooth muscle cells at rest (10^3 cells per test).
These cells were incubated in the presence of minimum eagle medium to which 5% of an agent inducing a cell proliferation was added. These tests were performed with various increasing doses of the compound to be studied compared with controls.

For series [6], the system named is rabbit carotid arteries (myointimal proliferation). Description: Inhibition of myointimal proliferation induced in rabbit carotid arteries after lesion of the endothelium. The format is in vivo. The note with it: oral, 16 days. The procedure: 2) Inhibition of myointimal proliferation induced in rabbit carotid arteries after lesion of the endothelium For this purpose, rabbits from which the endothelium of the carotid artery was removed were used. Two hours before the lesion, the compound to be studied was administered orally. The treatment was continued orally, daily for 16 days, and the surface areas of the intima and of the media were then determined by morphometric measurement.

A short description of series [7]: Hygroscopicity and storage stability of SR 33805 salts. Format: physicochemical.
In series [8] the test system is Ca^++ surcharge in arterial regions (femoral, mesenteric, aortic etc.). In words: Inhibition of the Ca++ surcharge after treatment with vitamin D3 in rats. Format: in vivo, rat. Conditions: administered twice daily; for minimal effective dose: Rattus norvegicus, 72 h, oral, 3 days. The procedure: 1) Inhibition of the Ca^++ surcharge after treatment with vitamin D3 in rats
A test was performed on rats, to which 300,000 IU/kg of vitamin D3 were administered intramuscularly, followed by oral administration of a daily dose of the compound to be studied. The oral treatment using the compound to be tested was continued for 3 days, the animals were sacrificed and the Ca^++ was then assayed in various arterial regions (femoral, mesenteric, aortic etc.).

The mark [9] stands for this setting: (3) added to water at 70° C., then stirring 72 h at 25° C., read-out: solubility after addition of the product to be tested to water at 70° C., stirring and continuation of stirring for 72 h at 25° C.
[10] abbreviates: water, (1) water, 25° C., stirring 72 hours, read-out: solubility in water at 25° C. after stirring for 72 hours.
The mark [11] stands for this setting: Homo sapiens, 72 h, inducing agent: foetal growth factor, 3 days incubation.
The mark [12] stands for this setting: Homo sapiens, Platelet, 72 h, inducing agent: platelet derived growth factor, 3 days incubation.

Like-named read-outs stand apart in the source and are kept apart here.

As to `CNCCCOc1ccc(S(=O)(=O)c2c(C(C)C)c3ccccc3n2C)cc1` [SR 34549, 1-methyl-3-isopropyl-2-{4-[3-(N-methylamino)propoxy]benzenesulfonyl} indole], in series [1], the “activity on the cardiovascular system” value is “very moderate or lack of activity”. Further, in series [2], the “inhibition of the calcium translocation” value is “devoid of inhibitory properties”. Further, in series [3], the “inhibition of the proliferation of smooth muscle cells” value (“inhibition … of smooth muscle cells” below) is “strong activity”.

On to `COc1ccc(CCN(C)CCCOc2ccc(S(=O)(=O)c3c(C(C)C)c4ccccc4n3C)cc2)cc1OC` [SR 33805 B], for which the solubility – broadly, the concentration that dissolves in the medium under given conditions – in series [4] was 100 µg/mL. Moreover, the figures for the solubility thermodynamic at 72 h in series [4] (setting [9]) and in series [4] (setting [10]) were 260 µg/mL and 150 µg/mL, respectively.

As for `COC(=O)C1=C(C)NC(C)=C(C(=O)OC)C1c1ccccc1[N+](=O)[O-]` [Nifedipine], the IC50 in series [5] (setting [11]) is 1000 nM; in series [5] (setting [12]) it was > 10000 nM. The “effect on myointimal hyperplasia” value in series [6] (maximum dose 6 mg/kg or twice 6 mg/kg) is reported as “no significant effect”.

Regarding `COc1ccc(CCN(C)CCCOc2ccc(S(=O)(=O)c3c(C(C)C)c4ccccc4n3C)cc2)cc1OC` [SR 33805, 1-methyl-3-isopropyl-2-[4-{3-[N-methyl-N-(3,4-dimethoxyphenethyl)amino]propoxy}benzenesulphonyl]indole], in series [3], the “inhibition … of smooth muscle cells” value is on record as “most interesting inhibitory potentiality”.

Take `COc1ccc(CCN(C)CCCOc2ccc(S(=O)(=O)c3c(C(C)C)c4ccccc4n3C)cc2)cc1OC.O=C(O)C(=O)O` [SR 33805 A, 1-Methyl-3-isopropyl-2-[4-{3-[N-methyl-N-(3,4-dimethoxyphenethyl)amino]propoxy}benzenesulphonyl]indole hydrogen oxalate]: in series [4], the solubility turned out to be 190 µg/mL. Also, the solubility thermodynamic at 72 h in series [4] (setting [9]) came out at 310 µg/mL; in series [4] (setting [10]), 70 µg/mL.

Take `COc1ccc(CCN(C)CCCOc2ccc(S(=O)(=O)c3c(C(C)C)c4ccccc4n3C)cc2)cc1OC.CS(=O)(=O)O` [SR 33805 C, 1-methyl-3-isopropyl-2-[4-{3-[N-methyl-N-(3,4-dimethoxyphenethyl)amino]propoxy}benzenesulphonyl]-indole methanesulphonate]: in series [7], the hygroscopicity result was “no signs of hygroscopicity”. In series [7] (various storage conditions), the “stability under various storage conditions” value is “good stability”. Moreover, the minimal effective dose in series [8] (aorta, read-out: dose from which significant inhibition of the Ca++ surcharge in the aorta) came out at 2 mg/kg; in series [8] (mesenteric artery, read-out: dose from which significant inhibition of the Ca++ surcharge in the mesenteric artery) it was 5 mg/kg; in series [6] (Oryctolagus cuniculus, 384 h, read-out: dose from which significant inhibition of myointimal proliferation), 1.5 mg/kg. Further, the IC50 in series [5] (Homo sapiens, 72 h, inducing agent: fetal calf serum, 3 days incubation) stood at 900 nM; in series [5] (setting [11]), 600 nM; in series [5] (setting [12]) it was 300 nM. For the same molecule, the “inhibition of myointimal proliferation” value in series [6] (from the dose of 1.5 mg/kg, significant) is recorded as -58%. The solubility in series [4] was 79900 µg/mL. Besides, the solubility thermodynamic at 72 h in series [4] (setting [9]) worked out at 98300 µg/mL; in series [4] (setting [10]) it was 67500 µg/mL. For the same molecule, the aqueous solubility entry in series [4] (in words, contrary to the other salts of SR 33805) is on record as “good aqueous solubility”.

As to `COc1ccc(CCN(C)CCCC(C#N)(c2ccc(OC)c(OC)c2)C(C)C)cc1OC` (stereo not drawn) [Verapamil], in series [5] (Homo sapiens, 72 h), the IC50 is 10000 nM. The “effect on myointimal hyperplasia” value in series [6] (maximum dose twice 6 mg/kg) is listed as “no significant effect”. For the same molecule, in series [3], the “inhibition … of smooth muscle cells” value is given as “devoid of such properties or have shown themselves to be endowed with these properties at high, or even subtoxic, doses”.

`COc1ccc([C@@H]2Sc3ccccc3N(CCN(C)C)C(=O)[C@@H]2OC(C)=O)cc1` [Diltiazem]: the “effect on myointimal hyperplasia” value in series [6] (maximum dose twice 6 mg/kg) is “no significant effect”.

With “3-isopropyl-1-[4-{3-[N-methyl-N-(3,4-dimethoxyphenethyl)amino]propoxy}benzenesulphonyl]-indolizine [Fantofarone]”, the “dose from which significant decrease in the total Ca content” value in series [8] (artery not specified, same experimental conditions) was found to be 100 mg/kg. For the same molecule, the IC50 is 5500 nM in series [5] (inducing agent: fetal calf serum, 3 days incubation); 2000 nM in series [5] (inducing agent: foetal growth factor, 3 days incubation); > 10000 nM in series [5] (inducing agent: platelet derived growth factor, 3 days incubation). Besides, in series [6] (maximum dose 12 mg/kg), the “effect on myointimal hyperplasia” value was “no significant effect”. Besides, in series [3], the “inhibition … of smooth muscle cells” value is listed as “devoid of such properties or have shown themselves to be endowed with these properties at high, or even subtoxic, doses”.
